According to the NIST ThermoML archive (doi:10.1016/j.jct.2016.10.031):

Assay: molar heat capacity at constant pressure
Conditions: 101.33 kPa, Small (less than 1 g) adiabatic calorimetry

CC(C)(C)c1ccc(Oc2ccc([N+](=O)[O-])cc2)cc1 [1-(tert-butyl)-4-(4-nitrophenoxy)benzene]
Conditions	molar heat capacity at constant pressure [J/K/mol]
147.54 K, Crystal	187.32
148.06 K, Glass	190.82
148.34 K, Crystal	188.16
148.86 K, Glass	191.65
149.14 K, Crystal	188.9
149.66 K, Glass	192.65
149.94 K, Crystal	189.82
150 K, Crystal	189.82
150.46 K, Glass	193.56
150.74 K, Crystal	190.57
151.26 K, Glass	194.31
151.54 K, Crystal	191.48
152.06 K, Glass	195.14
152.35 K, Crystal	192.31
152.86 K, Glass	195.97
153.15 K, Crystal	193.23
153.66 K, Glass	196.89
153.95 K, Crystal	194.14
154.46 K, Glass	197.88
154.75 K, Crystal	194.81
155.26 K, Glass	198.63
155.55 K, Crystal	195.89
156.06 K, Glass	199.63
156.35 K, Crystal	196.72
156.86 K, Glass	200.38
157.15 K, Crystal	197.47
157.66 K, Glass	201.21
157.95 K, Crystal	198.13
158.46 K, Glass	201.96
158.75 K, Crystal	199.21
159.26 K, Glass	202.87
159.55 K, Crystal	200.21
160 K, Crystal	200.63
160.06 K, Glass	203.79
160.35 K, Crystal	201.13
160.85 K, Glass	204.7
161.15 K, Crystal	202.12
161.95 K, Crystal	202.71
162.45 K, Glass	206.7
162.75 K, Crystal	203.62
163.25 K, Glass	207.28
163.55 K, Crystal	204.37
164.04 K, Glass	208.36
164.35 K, Crystal	205.62
164.84 K, Glass	209.11
165.15 K, Crystal	206.53
165.64 K, Glass	209.94
165.95 K, Crystal	207.36
166.44 K, Glass	210.52
166.75 K, Crystal	208.11
167.23 K, Glass	211.35
167.55 K, Crystal	209.11
168.03 K, Glass	212.35
168.34 K, Crystal	210.11
168.81 K, Glass	213.35
169.14 K, Crystal	210.44
169.61 K, Glass	214.18
169.94 K, Crystal	211.44
170 K, Crystal	211.44
170.41 K, Glass	214.93
170.73 K, Crystal	212.93
171.2 K, Glass	216.18
171.53 K, Crystal	213.1
172 K, Glass	217.01
172.33 K, Crystal	214.01
172.79 K, Glass	217.67
173.12 K, Crystal	214.76
173.59 K, Glass	218.42
173.92 K, Crystal	215.68
174.38 K, Glass	219.58
174.72 K, Crystal	216.59
175.18 K, Glass	220.25
175.51 K, Crystal	218.01
175.97 K, Glass	221.25
176.31 K, Crystal	218.34
176.77 K, Glass	221.83
177.11 K, Crystal	219.25
177.56 K, Glass	222.49
177.91 K, Crystal	219.83
178.36 K, Glass	223.49
178.7 K, Crystal	220.33
179.15 K, Glass	224.32
179.5 K, Crystal	221.5
179.94 K, Glass	224.99
180 K, Crystal	222.33
180.3 K, Crystal	222.33
180.74 K, Glass	225.74
181.08 K, Crystal	223.58
181.52 K, Glass	226.98
181.88 K, Crystal	224.41
182.67 K, Crystal	224.99
183.09 K, Glass	227.73
183.47 K, Crystal	225.82
183.89 K, Glass	229.73
184.26 K, Crystal	226.74
184.68 K, Glass	230.39
185.06 K, Crystal	227.57
185.47 K, Glass	231.56
185.85 K, Crystal	228.48
186.26 K, Glass	232.14
186.65 K, Crystal	229.15
187.05 K, Glass	232.97
187.44 K, Crystal	230.48
187.84 K, Glass	233.97
188.22 K, Crystal	231.31
188.63 K, Glass	234.63
189.02 K, Crystal	232.14
189.42 K, Glass	235.47
189.81 K, Crystal	233.3
190 K, Crystal	233.22
190.21 K, Glass	236.46
190.6 K, Crystal	233.97
190.99 K, Glass	237.29
191.39 K, Crystal	234.63
191.78 K, Glass	237.88
192.19 K, Crystal	235.38
192.57 K, Glass	238.87
192.98 K, Crystal	236.3
193.36 K, Glass	239.79
193.75 K, Crystal	236.96
194.13 K, Glass	240.95
194.54 K, Crystal	237.79
194.91 K, Glass	241.45
195.33 K, Crystal	238.54
195.7 K, Glass	241.95
196.12 K, Crystal	239.46
196.49 K, Glass	243.2
196.91 K, Crystal	240.62
197.27 K, Glass	243.95
197.7 K, Crystal	241.29
198.06 K, Glass	245.11
198.49 K, Crystal	242.12
198.84 K, Glass	245.94
199.28 K, Crystal	243.03
199.63 K, Glass	246.69
200 K, Crystal	244.28
200.07 K, Crystal	244.03
200.62 K, Glass	248.02
201.06 K, Crystal	245.28
202.26 K, Crystal	246.86
203 K, Glass	251.26
203.46 K, Crystal	247.94
204.2 K, Glass	252.18
204.66 K, Crystal	249.18
205.4 K, Glass	253.42
205.86 K, Crystal	250.85
206.6 K, Glass	254.76
207.05 K, Crystal	252.26
207.79 K, Glass	256.09
208.26 K, Crystal	253.26
208.99 K, Glass	257.5
209.45 K, Crystal	254.42
210 K, Crystal	255.34
